How the values were obtained:
[1] = system: AMPK; assay: AMPK Western blot analysis of liver tissue of WD mice; assay type: in vivo, mice (male B6 129SF1/J); conditions: week 16; dose-dependent, reverses WD-induced downregulation
Source text: Animal experiments. Male B6 129SF1/J mice at 6 weeks of age were obtained from Jackson Laboratories (Bar Harbor, ME). Mice were acclimatized to the animal facility for one week. At the start of the experiment, mice were randomly divided into four groups (n=10 for each group). Three of the four groups were fed ad libitum a Western diet (WD) with 40% Kcal from fat and containing 0.15% cholesterol (D12079B, Research Diets) and a sugar water (SW) solution (23.1 g/L d-fructose+18.9 g/L d-glucose) as previously described (DIAMOND model (15)). After 8 weeks, the three groups of WD-fed mice were randomly selected for treatment with vehicle (WD group) or low (WD-50 group) or high dose (WD-100 group) of […]. The WD group was fed WD and drank sugar water. The WD-50 and WD-100 groups were fed WD and drank sugar water containing, respectively, 50 or 100 mg […] per kg body weight. The treatments were continued for another 8 weeks. Water bottles containing SW and […] or only SW were changed every other day. […] The protein concentration was determined using the BCA protein assay kit (Pierce). […] Proteins were quantified by normalizing the intensity of the protein band of interest to the intensity of the j-actin band in the same lane using the Image Lab software (Bio-Rad, Hercules, CA).

[2] = system: hepatocytes; assay: Cultured hepatocytes (lipid droplet loaded, TNF-α; Fasn/SREBP-1c expression); assay type: cell-based
[3] = system: liver metabolome; assay: Liver untargeted metabolomics in WD mice; assay type: in vivo, mice (male B6 129SF1/J)

For O=C([O-])Cc1c[nH]c2ccccc12.[Na+] [I3A, Indole-3-acetate sodium salt], the “liver AMPK and p-AMPK levels” value [1] was “increased both AMPK as well as p-AMPK”, the “TNF-α induced production of saturated free fatty acids” value ([2]; cultured hepatocytes loaded with lipid droplets (mimicking steatosis), AhR dependent) was “abrogated TNF-α induced production of saturated free fatty acids” and the “expression of Fasn and SREBP-1c” value ([2]; hepatocytes, AhR dependent manner) was “decreased the expression of Fasn and its transcriptional regulator SREBP-1c”. For the same compound, the “liver metabolome PLS-DA projection” value ([3]; high dose (WD-100) group vs CN and WD, p<0.005 and p<0.0005) was “only partially overlapped with both CN and the WD group”, the “WD-induced changes in 516 significant annotated liver metabolite features (hierarchical clustering)” value ([3]; high dose of I3A) was “generally reversed these changes” and the “liver metabolome PLS-DA projection” value ([3]; low dose (WD-50) group vs WD, p=0.26) was “overlapped completely with the WD group”.
